# “And” between values parts separate entries of the source, which are not always exact repeats. Equal values may be shown once.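 Where inhibition never reached the appropriate level, the endpoint shown equals the highest concentration tested. Otherwise, values were interpolated linearly from a five-concentration, 48-hour dose response in 96-well plates. GI50: concentration for 50% inhibition of growth. The concentration for full growth arrest is given as TGI.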
# Key:
# Assay in all cases: DTP human tumour cell line panel, 48 h
# [1] = tested on: 786-0 renal
# [2] = tested on: HOP-62 NSCLC
# [3] = tested on: IGROV1 ovarian
# [4] = tested on: K-562 leukemia
# [5] = tested on: NCI-H522 lung
# [6] = tested on: NCI/ADR-RES ovarian
# [7] = tested on: OVCAR-3 ovarian
# [8] = tested on: OVCAR-4 ovarian
# [9] = tested on: OVCAR-5 ovarian
# [10] = tested on: U251 CNS
SMILES,GI50 [1],TGI [1],GI50 [2],TGI [2],GI50 [3],TGI [3],GI50 [4] [µM],TGI [4],GI50 [5] [µM],TGI [5],GI50 [6] [µM],TGI [6] [µM],GI50 [7],TGI [7],GI50 [8],TGI [8],GI50 [9],TGI [9],GI50 [10],TGI [10]
C#CCCCCCC(=O)N[C@H]1C=C[C@@H]2/C=C(C)/C=C/[C@@H](C)[C@H]([C@H](C)[C@H](O)[C@@H](C)NC(C)=O)OC(=O)/C=C/C=C(C)\C=C\[C@]2(C)C1,< 0.004 µM,> 40 µM,0.0107 µM,> 40 µM,0.00681 µM,> 40 µM,< 0.004,> 40 µM,0.0091,14.2 µM,0.0258,> 40,0.00889 µM,> 40 µM,3.06 µM,> 40 µM,6.53 µM,> 40 µM,< 0.004 µM,> 40 µM
NS(=O)(=O)c1cc2c(cc1Cl)NCNS2(=O)=O,–,> 100 µM,–,> 100 µM,–,> 100 µM,–,> 100 µM,–,> 100 µM,–,> 100,–,> 100 µM,–,> 100 µM,–,> 100 µM,–,> 100 µM
COc1cc(NC(=O)COc2ccccc2)c(C(N)=O)cc1OC,7.32 µM,38.8 µM,1.75 µM,24.3 µM,4.07 µM,> 100 µM,0.31,> 100 µM,0.41,7.06 µM,0.487,11.7,0.472 µM,10.5 µM,> 100 µM,> 100 µM,15 µM,> 100 µM,0.777 µM,17.9 µM
COc1ccc(Cn2c(Br)c3c(c2-c2cc(OC)c(OC)c(OC)c2)CCc2sc(N)nc2-3)cc1,2.17 µM,> 49.8 µM,1.33 µM,> 47 µM,1.28 µM,9.19 µM,0.436,> 32.9 µM,0.263,1.09 µM,0.866,36.3,0.861 µM,9.61 µM,2.5 µM,> 57.3 µM,4.26 µM,> 100 µM,1.3 µM,12.7 µM
COc1cc(/C=C/C(=O)c2nc3cc(F)ccc3nc2C)cc(OC)c1OC,> 23.2 µM,> 100 µM,> 27.8 µM,> 100 µM,11.4 µM,> 100 µM,2.01,> 23.9 µM,6.98,> 100 µM,14.2,> 91.1,2.59 µM,> 28.1 µM,> 40.7 µM,> 100 µM,> 100 µM,> 100 µM,3.54 µM,> 100 µM
COc1ccccc1CNCCCN1C(=O)c2ccc3c4c(ccc(c24)C1=O)C(=O)N(CCCNCc1ccccc1OC)C3=O,0.257 µM,0.703 µM,0.192 µM,0.633 µM,0.148 µM,0.399 µM,0.265,0.83 µM,0.145,0.307 µM,1.19,4.54,0.085 µM,0.218 µM,0.101 µM,0.231 µM,0.225 µM,0.597 µM,0.164 µM,0.447 µM
COc1cc2c3c(n(CCCN)c(=O)c2cc1OC)-c1ccc(N)cc1C3=O,1.91 µM,5.04 µM,1.55 µM,4.92 µM,1.43 µM,> 50.4 µM,0.155,12 µM,0.78,16.7 µM,> 100,> 100,2.12 µM,> 29.6 µM,1.57 µM,11.6 µM,7.87 µM,> 47.9 µM,0.575 µM,6.84 µM
O=C1NC(=NCc2cccs2)O/C1=C\c1ccc2ncccc2c1,6.21 µM,> 20.3 µM,6.1 µM,18.9 µM,3.51 µM,10.5 µM,7.31,> 25 µM,2,8.34 µM,7.8,> 25,4.46 µM,12.6 µM,4.5 µM,> 20.3 µM,6.58 µM,23.9 µM,5.07 µM,> 18.8 µM
CN(C)c1ccc(/C=N/N=C(\C#N)[S][Sn]([Cl])([c]2ccccc2)[c]2ccccc2)cc1,1.48 µM,2.83 µM,2.63 µM,6.02 µM,1.99 µM,4.63 µM,0.339,3.55 µM,0.127,0.369 µM,2.01,4.76,1.3 µM,2.59 µM,1.32 µM,2.63 µM,1.59 µM,3.24 µM,1.78 µM,3.2 µM
N#CC1=C(N)Oc2c(ccc3ccccc23)C1c1cc2ccccc2n2nnnc12 (stereo not drawn),1.28 µM,> 100 µM,0.812 µM,> 100 µM,0.82 µM,> 100 µM,0.365,> 100 µM,0.407,2.9 µM,0.534,46.6,0.44 µM,3.36 µM,18.7 µM,> 100 µM,2.76 µM,> 100 µM,0.748 µM,> 100 µM
CN1CCN(C(=O)/C=C/c2ccc([N+](=O)[O-])o2)CC1,18.6 µM,36.7 µM,17.1 µM,39.9 µM,10.8 µM,36.4 µM,11,40.4 µM,2.72,5.74 µM,14.9,52.5,12.9 µM,26.2 µM,14.2 µM,27.9 µM,22.3 µM,39.1 µM,17.1 µM,55.1 µM
O=C1NC(c2ccccc2Cl)Nc2ccccc21 (stereo not drawn),–,> 100 µM,–,> 100 µM,–,> 100 µM,–,> 30.4 µM,–,72.1 µM,–,27.5,–,31.3 µM,–,> 100 µM,–,> 100 µM,–,> 69.7 µM
CC(C)c1ccc2c(c1)CCC1C2CCCC1(C)NCc1ccccc1 (stereo not drawn),2.43 µM,5.61 µM,8.94 µM,21.4 µM,6.43 µM,20.7 µM,1.46,10.9 µM,1.68,3.55 µM,5.84,19.9,9.34 µM,24.4 µM,7.26 µM,19.8 µM,3.48 µM,13.6 µM,4.69 µM,15.8 µM
O=C(NO)c1ccc(CNc2cccc3nc(C4CC4)n(-c4ccccc4)c(=O)c23)cc1,2.18 µM,5.2 µM,1.89 µM,4.72 µM,1.44 µM,3.01 µM,2.89,> 100 µM,1.47,3.38 µM,1.28,6.45,1.92 µM,5.51 µM,2.28 µM,21.9 µM,2.06 µM,6.1 µM,1.63 µM,3.23 µM
CN(C)CCCC1(c2ccc(F)cc2)OCc2cc(-c3csc4ccccc34)ccc21 (stereo not drawn),1.84 µM,3.63 µM,1.57 µM,3.31 µM,1.35 µM,2.96 µM,1.72,3.45 µM,1.65,3.48 µM,1.59,3.07,1.73 µM,3.26 µM,1.68 µM,3.28 µM,1.55 µM,2.95 µM,1.69 µM,3.39 µM
O=C1NC(=O)C2C3C=CC(C12)C1C2C(=O)NC(=O)C2C31 (stereo not drawn),> 250 µM,> 1000 µM,> 644 µM,–,> 770 µM,248 µM and > 1000 µM,137,250 µM and > 1000 µM,261,235 µM and 864 µM,> 1000,> 1000,> 909 µM,250 µM and > 1000 µM,> 1000 µM,250 µM and > 1000 µM,> 1000 µM,> 1000 µM,–,244 µM and > 1000 µM
COc1cc2c(cc1OCCN1CCN(CCN3C(=O)c4cccc5cccc(c45)C3=O)CC1)N=C[C@@H]1CCCN1C2=O,18.2 µM,33.4 µM,19.7 µM,34.9 µM,19.2 µM,36.9 µM,25.2,57.7 µM,18.8,34.8 µM,11.9,28.2,15.8 µM,33.5 µM,24.6 µM,47.3 µM,19 µM,35 µM,16.1 µM,34.1 µM
CC1=C(C(=O)Nc2ccc3[nH]ncc3c2)C(c2ccc(F)cc2)N=C(c2ccc(C(F)(F)F)nc2)N1 (stereo not drawn),10.8 µM,> 25 µM,10.1 µM,> 25 µM,5.66 µM,> 25 µM,10,> 25 µM,7.06,> 25 µM,18.5,> 25,9.07 µM,> 25 µM,12.4 µM,> 25 µM,> 25 µM,> 25 µM,17.1 µM,> 25 µM
COc1nc(N)nc2nc[nH]c12,639 µM and 214 µM,500 µM and 800 µM and > 418 µM,576 µM and 582 µM,180 µM and 800 µM and > 923 µM,460 µM and 529 µM,454 µM and 800 µM and > 1000 µM,> 800,> 1000 µM,554,500 µM and 800 µM and > 917 µM,580,> 739,744 µM and > 856 µM,500 µM and 800 µM and > 1000 µM,> 800 µM and 982 µM,500 µM and > 800 µM and > 1000 µM,401 µM and > 728 µM,491 µM and 800 µM and > 1000 µM,> 800 µM and 741 µM,500 µM and > 800 µM and > 1000 µM
